Reference: patent publication US12098217B2, “Fusion peptides as antimicrobial agents” (CENTRE NATIONAL DE LA RECHERCHE SCIENTIFIQUE, priority 2019, dated 2024)
Square brackets hold non-standard residues; d marks the D form. Peptide text beside a SMILES is read from it. Cha = N[C@@H](CC1CCCCC1)C(=O)O

Key:
[1] = tested on: E. coli 70S ribosome (^Ec70S); experiment: ITC, peptide interaction with E. coli 70S ribosome; format: binding
[2] = tested on: E. coli infected kenny^drawing 2831 flies; experiment: In vivo survival assay, D. melanogaster infection model; design: species or system Drosophila melanogaster; conditions: 18.4 nl of 1 mM peptide 1 and 24 h after infection; for fold increased survival of infected flies 96 h after injection: E. coli infected kenny flies, versus PBS
Experimental: FIG. 2 concerns the in vivo survival assay using Drosophila melanogaster infection model. Seven-day-old female kenny^C02831 flies were infected by septic injury with a thin tungsten needle previously dipped in an E. coli suspension diluted in PBS and kept at 29° C. 1 and 24 hours after infection, 18.4 nl of peptides (1 mM) diluted in PBS or PBS alone were injected into the flies body cavity. (A) Survival curves. (B) Survival rate after 96 hours. (C) Lethal time 50% (LT50). Data represent means±standard errors of at least 3 independent experiments, each containing three groups of 20 flies. One-Way ANOVA test: *P<0.05, **P<0.01, ***P<0.001. ns: non-significant (P28: Onc112; P30: Onc112-P7; P120: Onc112-P7Scr).
50 ml of E. coli ATCC23754 were grown at 29° C. in LB media up to exponential phase (OD600=0.6-0.8) and centrifuged at 5.000 g for 5 min. The pellet was then diluted in 1 ml of PBS. Immune-deficient kenny^C02831 (Bou Aoun, R., Hetru, C., Troxler, L., Doucet, D., Ferrandon, D., and Matt, N. (2011). Analysis of thioester-containing proteins during the innate immune response of Drosophila melanogaster. J Innate Immun 3, 52-64) flies were raised at 25° C. with 60% humidity on standard cornmeal-agar medium. Seven-day-old female flies were infected by septic injury with a thin tungsten needle previously dipped in an E. coli suspension diluted in PBS and kept at 29° C. 1 and 24 hours after infection, 18.4 nl of peptides (1 mM) diluted in PBS or PBS alone were injected into the fly body cavity (Nanoject II apparatus; Drummond Scientific). Because log-rank analysis can only compare two survival curves at a time in the same experiment, we decided to compute the median lethal time 50 (LT50) and the survival rate at 96 hours to perform One-way ANOVA statistical analysis.

[3] = tested on: E. coli ATCC 25922 (DSM 1103) strain; format: cell-based; conditions: ATCC 25922, 36 h
Experimental: E. coli strains were cultivated on either agar or liquid 1× Mueller Hinton broth unless specified. MIC assays were performed in duplicate in 96-well microtiter plates on the basis of the protocol recommended by the Clinical and Laboratory Standards Institute. Briefly, a mix of 5-6 fresh (less than 36 hours) colonies grown on MH agar plates were inoculated in 3 ml of MH broth and incubated for about 16 h at 37° C. under agitation. 30 μl of this saturated culture were inoculated in 3 ml of fresh medium and allowed to grow until OD600 nm of about 0.6-0.8. Dilution to an OD600 nm of 0.002 was made in MH broth. Within a time laps not exceeding 30 min, 50 μl of this cell suspension was added to 50 μl of MH broth (containing or not the peptide/antibiotic diluted in MH broth) in wells of a 96-well round bottom microwell plate (Greiner; final cell density about 2 to 5×10^5 cfu/ml). Plates were incubated at 37° C. for 18-24 h and final turbidity of each well was measured at 620 nm using a Multiskan FC microplate reader (Thermo Scientific). MIC was defined as the minimal antibiotic concentration that result in no increase of turbidity at that time. Each MIC determination was performed in duplicate and at least in two independent experiments. Plating of 75 μl of the content of the wells of interest on LB Agar plates was used to determine the MBC that is defined by a decrease of at least 99.9% of cell viability as compared to the number of viable cells in the inoculum (about 2 to 5×10^4 cfu).
The antimicrobial activities of these peptides have been tested against the E. coli ATCC 25922 (DSM 1103) strain in 1× Mueller-Hinton broth as mentioned above.
The antimicrobial activities of these peptides and controls have been tested against the E. coli ATCC 25922 (DSM 1103) strain in 1× Mueller-Hinton broth.

[4] = ITC 25° C., E. coli ribosome (70S)
[5] = ITC 30° C., Table 2B, ^Ec70S, Ni = no specific interaction
[6] = ITC 30° C., Table 2B, ^Ec70S, Ni = no specific interaction, FITC peptides (*) values not well defined
[7] = ITC, 30° C., E. coli ribosome, FITC-Onc112 series

Compound | Kd [1, 5] [nM] | ΔG [1, 6] [kcal/mol] | ΔH [1, 6] [kcal/mol] | −TΔS [1, 6] [kcal/mol] | fold increased survival of infected flies 96 h after injection [2] [fold] | MIC [3] [µM] | interaction with ^Ec70S, in words ([1]; ITC 30° C.) | effect on survival of E. coli infected flies, in words [2] | other results
CC[C@H](C)[C@H](NC(=O)[C@@H](CCCNC(=N)N)NC(=O)[C@H](CCCNC(=N)N)NC(=O)[C@@H]1CCCN1C(=O)[C@@H]1CCCN1C(=O)[C@H](CCCNC(=N)N)NC(=O)[C@@H]1CCCN1C(=O)[C@H](CCCNC(=N)N)NC(=O)[C@@H]1CCCN1C(=O)[C@H](CC(C)C)NC(=O)[C@H](Cc1ccc(O)cc1)NC(=O)[C@@H]1CCCN1C(=O)[C@@H]1CCCN1C(=O)[C@H](CCCCN)NC(=O)[C@H](CC(=O)O)NC(=O)[C@@H](N)C(C)C)C(=O)N[C@@H](Cc1ccc(O)cc1)C(=O)N[C@@H](CC(N)=O)C(=O)N[C@H](CCCNC(=N)N)C(N)=O [Peptide P28, reference compound] (H-VDKPPYLPRPRPPR[dR]IYN[dR]-NH2; N-terminus assumed) | 84 | -9.82 | -23.9 | 14.0 | 2.5 | 2 to 8 | – | – | Kd [1, 4]: 241 nM; ΔG (kcal/mol) [1, 4]: −9.2 (±0.1) kcal/mol; ΔH (kcal/mol) [1, 4]: −16.2 (±0.3) kcal/mol; affinity for ^Ec70S relative to Py ([1]; ITC 30° C.): fivefold lower; Kd ([1]; ITC 30° C., Table 2B, ^Ec70S, Ni = no specific interaction, listed as Onc112): ~84 nM; Kd [1, 7]: 241 nM; ΔG (kcal/mol) [1, 7]: −9.2 (±0.1) kcal/mol; ΔH (kcal/mol) [1, 7]: −16.2 (±0.3) kcal/mol
CC(=O)N[C@@H](CCC(N)=O)C(=O)N[C@@H](CC1CCCCC1)C(=O)N[C@@H](CC(=O)O)C(=O)N[C@@H](CC(C)C)C(=O)N[C@@H](Cc1ccccc1)C(=O)O [Peptide P7, Ac-QChaDLF-OH, reference compound] (Ac-Q[Cha]DLF-OH) | – | – | – | – | – | – | does not specifically bind | has no effect on fly survival | Kd (nM) [1, 5]: Ni; ΔG (kcal/mole) [1, 6]: Ni; ΔH (kcal/mole) [1, 6]: Ni; −TΔS (kcal/mole) [1, 6]: Ni
CC[C@H](C)[C@H](NC(=O)[C@@H](CCCNC(=N)N)NC(=O)[C@H](CCCNC(=N)N)NC(=O)[C@@H]1CCCN1C(=O)[C@@H]1CCCN1C(=O)[C@H](CCCNC(=N)N)NC(=O)[C@@H]1CCCN1C(=O)[C@H](CCCNC(=N)N)NC(=O)[C@@H]1CCCN1C(=O)[C@H](CC(C)C)NC(=O)[C@H](Cc1ccc(O)cc1)NC(=O)[C@@H]1CCCN1C(=O)[C@@H]1CCCN1C(=O)[C@H](CCCCN)NC(=O)[C@H](CC(=O)O)NC(=O)[C@@H](N)C(C)C)C(=O)N[C@@H](Cc1ccc(O)cc1)C(=O)N[C@@H](CC(N)=O)C(=O)N[C@H](CCCNC(=N)N)C(=O)N[C@@H](CC(N)=O)C(=O)NCC(=O)N1CCC[C@H]1C(=O)N[C@@H](CCCNC(=N)N)C(=O)N[C@@H](CC1CCCCC1)C(=O)N[C@@H](Cc1ccccc1)C(=O)N[C@@H](CCC(N)=O)C(=O)N[C@@H](CC(C)C)C(=O)N[C@@H](CC(=O)O)C(=O)O [Peptide P120] (H-VDKPPYLPRPRPPR[dR]IYN[dR]NGPR[Cha]FQLD-OH) | 101 | -9.85 | -13 | 3.12 | – | – | – | does not statistically differ from that measured with P28 | –
CC[C@H](C)[C@H](NC(=O)[C@@H](CCCNC(=N)N)NC(=O)[C@H](CCCNC(=N)N)NC(=O)[C@@H]1CCCN1C(=O)[C@@H]1CCCN1C(=O)[C@H](CCCNC(=N)N)NC(=O)[C@@H]1CCCN1C(=O)[C@H](CCCNC(=N)N)NC(=O)[C@@H]1CCCN1C(=O)[C@H](CC(C)C)NC(=O)[C@H](Cc1ccc(O)cc1)NC(=O)[C@@H]1CCCN1C(=O)[C@@H]1CCCN1C(=O)[C@H](CCCCN)NC(=O)[C@H](CC(=O)O)NC(=O)[C@@H](N)C(C)C)C(=O)N[C@@H](Cc1ccc(O)cc1)C(=O)N[C@@H](CC(N)=O)C(=O)N[C@H](CCCNC(=N)N)C(=O)N[C@@H](CC(N)=O)C(=O)NCC(=O)N1CCC[C@H]1C(=O)N[C@@H](CCCNC(=N)N)C(=O)N[C@@H](CCC(N)=O)C(=O)N[C@@H](CC1CCCCC1)C(=O)N[C@@H](CC(=O)O)C(=O)N[C@@H](CC(C)C)C(=O)N[C@@H](Cc1ccccc1)C(=O)O [Peptide P30] (H-VDKPPYLPRPRPPR[dR]IYN[dR]NGPRQ[Cha]DLF-OH) | 70.4 | -9.92 | -25.6 | 15.7 | 4.5 | 16 to 32 | efficiently interact | two times higher protective effect than its parental peptide P28 | affinity for the ribosome relative to affinity for SC ([1]; from Table 2, ^Ec70S versus ^EcSC): three times higher affinity
CC[C@H](C)[C@H](NC(=O)[C@@H]1CCCN1C(=O)[C@H](CCCNC(=N)N)NC(=O)[C@@H]1CCCN1C(=O)[C@@H]1CCCN1C(=O)[C@@H](NC(=O)[C@@H]1CCCN1C(=O)[C@H](CCCNC(=N)N)NC(=O)[C@@H]1CCCN1C(=O)[C@H](CC(C)C)NC(=O)[C@H](Cc1ccc(O)cc1)NC(=O)[C@H](CO)NC(=O)CNC(=O)[C@H](CCCCN)NC(=O)[C@H](CC(=O)O)NC(=O)[C@@H](NC(=O)[C@H](CCCCN)NC(=O)c1ccc2c(c1)C(=O)OC21c2ccc(O)cc2Oc2cc(O)ccc21)C(C)C)[C@@H](C)O)C(=O)N[C@@H](Cc1ccc(O)cc1)C(=O)N[C@@H](CC(N)=O)C(=O)N[C@@H](CCCNC(=N)N)C(=O)N[C@@H](CC(N)=O)C(=O)NCC(=O)N1CCC[C@H]1C(=O)N[C@@H](CCCNC(=N)N)C(=O)N[C@@H](CCC(N)=O)C(=O)N[C@@H](CC1CCCCC1)C(=O)N[C@@H](CC(=O)O)C(=O)N[C@@H](CC(C)C)C(=O)N[C@@H](Cc1ccccc1)C(=O)O [Peptide P150] | – | -6.27 | -13 | 6.7 | – | – | – | – | Kd ([1]; ITC 30° C., Table 2B, ^Ec70S, FITC peptides (*), values not well defined, weak interaction): > 10000 nM
